Laboratory results from patent publication US9205064B2, “Methods for the diagnosis of oncological disorders using epimetabolic shifters, multidimensional intracellular molecules, or environmental influencers” (Berg LLC, priority 2009, dated 2015).

Experiments:
Type in all cases: cell-based, human
[1] = tested on: Isocitrate Dehydrogenase-1 (IDH-1); test: Western blot of IDH1 levels in normal and cancer cells; details: PACA2, 5g48-100
Procedure: The whole cell pellets were resuspended one at a time in 1 mL of C7 buffer and transferred to labeled 15 mL tubes. The samples were then sonicated in the cold room on ice using 6 sonic pulses with the setting at #14. The samples were spun for a short time to 2500 g after sonication and the samples transferred to 2 ml tubes. The pH was verified of each sample (pH should be 9.0) using the foam remaining in the […] sample tubes.
Alkylation and reduction of samples was performed for each sample by adding 10 ul of 1M acrylamide, 25 ul of tributylphoshene and incubation for 90 mins with intermittent mixing. After incubation, 10 ul of 1M DTT was added and the tubes were spun at 20,000 g at 20 deg C. for 10 minutes and transferred the supernatant to labeled Amicon Ultra centrifugal filter units with a 10 k cut off (Millipore catalog #UFC 801024). The samples were spun for 15 minutes at 2500 g in 2 intervals. The conductivity was measured for Chaps alone as well as the samples using a conductivity meter. If the conductivity of samples is high, then 1 ml of chaps was added for buffer exchange and spun again at 2500 g until the volume was down to 250 ul. […]
The samples were processed as per standard protocols as described above and the amount of protein in each of the samples was determined by Bradford assay. […]

HDFa cells = test: SeaHorse XF analyzer OCR and ECAR; details: normoxic and hypoxic, 5.5 mM and 22 mM glucose
Text: Environmental influencers (e.g., MIMs or Epi-shifters) may also be identified by changes in cellular energetics. One example of the measurement of cellular energetics are the real-time measures of the consumption of molecular oxygen and/or the change in pH of the media of a cell culture. For example, the ability of a potential epi-shifter to modulate the metabolic state of a cell may be analyzed using, for example, the XF24 Analyzer (Seahorse, Inc.). This technology allows for real time detection of oxygen and pH changes in a monolayer of cells in order to evaluate the bioenergetics of a cell microenvironment. The XF24 Analyzer measures and compares the rates of oxygen consumption (OCR), which is a measure of aerobic metabolism, and extracellular acidification (ECAR), which is a measure of glycolysis, both key indicators of cellular energetics.
(SeaHorse Biosciences Inc, North Billerica, Mass.).
In this experiment, the OCR and extracellular acidification rate (ECAR) in normal cells lines were obtained in the presence and absence of CoQ10 to determine baseline values. It was observed that in its native nutrient environment, the basal OCR rates in normal cells lines are different, and are usually a function of the physiological roles of the cells in the body.
FIGS. 29 and 30 describe the OCR in HDFa and HASMC cells grown in physiologically normal glucose (about 4.6 mM) and high glucose (hyperglycemic) conditions.
Table 53, below, describes the ECAR values (mpH/min) in HDFa cells in the presence or absence of CoQ10 under normoxic and hypoxic conditions at 5.5 mM and 22 mM glucose.

SkBr-3 Cells = test: Real-time PCR Apoptosis Array; design: key: fold change in mRNA level; negative = down-regulation; details: 50 um Q10, 24 hours
Procedure: RNA was quantified by measuring Optical Density at 260 nm.
Changes in mRNA levels were evaluated using real-time PCR quantification to assess mRNA levels in pre-selected subsets containing […] pathway specific targets.
For the interpretation of mRNA results, the genes that were altered in their mRNA transcription by a two-fold level were identified and evaluated. The level of gene transcription to produce mRNA only provides a rough estimate of potential changes in the level of the expressed protein. The skilled artisan will appreciate that each mRNA may have different rates at which it is degraded or its translation inefficiently, thus resulting in differing amounts of protein.
The assay method of RT-PCR was utilized to provide a measure of mRNA level changes to a total of 84 apoptotic pathway related proteins.

In the case of `COC1=C(OC)C(=O)C(C/C=C(\C)CC/C=C(\C)CC/C=C(\C)CC/C=C(\C)CC/C=C(\C)CC/C=C(\C)CC/C=C(\C)CC/C=C(\C)CC/C=C(\C)CCC=C(C)C)=C(C)C1=O` [Q10, Coenzyme Q10], the “IDH1 Normalized Intensity (HASMC vs. PACA2)” value [1] is reported as 860, the “influence on ECAR values” (HDFa cells) is reported as “minimal influence” and the “APAF1 mRNA Up-Down Regulation” value (SkBr-3 Cells) is reported as 2.6244. The “BAX mRNA Up-Down Regulation” value (SkBr-3 Cells) was 3.896, the “BCL2L1 mRNA Up-Down Regulation” value (SkBr-3 Cells) was 13.1957 and the “BCL2L11 mRNA Up-Down Regulation” value (SkBr-3 Cells) was 4.6012. For the same compound, the “BCL2 mRNA Up-Down Regulation” value (SkBr-3 Cells) was 5.4717, the “BIRC6 mRNA Up-Down Regulation” value (SkBr-3 Cells) was 4.7966 and the “BNIP2 mRNA Up-Down Regulation” value (SkBr-3 Cells) was 6.3291. The “BRAF mRNA Up-Down Regulation” value (SkBr-3 Cells) was 4.3832, the “HPRT1 mRNA Up-Down Regulation” value (SkBr-3 Cells) was −160.6748 and the “XIAP mRNA Up-Down Regulation” value (SkBr-3 Cells) was 4.3832.
